Source: paper PMC7571145, “Multistep Synthesis and In Vitro Anticancer Evaluation of 2-Pyrazolyl-Estradiol Derivatives, Pyrazolocoumarin-Estradiol Hybrids and Analogous Compounds” (Molecules, 2020)
Read-outs that look alike come from different tables or passages of the source.

Experiments:
MRC-5 fibroblasts = assay: MTT cytotoxicity assay on non-cancerous MRC-5 fibroblasts; format: cell-based; conditions: for primary growth inhibitory screen, cell viability, MRC-5 / effect on non-cancerous fibroblasts: 2.5 µM; for primary growth inhibitory screen, cell viability, MRC-5 / IC50: MTT; for primary growth inhibitory screen, cell viability, MRC-5: mean±SD, untreated control about 100; for IC50: mean ± SD; for effect on non-cancerous fibroblasts: based on the heat map
Protocol: (§1) Cytotoxicity screens were performed to assess the in vitro anticancer activity of the synthesized A-ring-linked 2-pyrazoles of estradiol, the pyrazolocoumarin-estradiol hybrids, and their structurally simplified non-steroidal analogs on various cancerous cell lines such as MCF-7, PC-3, DU145, and HeLa and on non-cancerous MRC-5 fibroblasts. The 2-acetyl-phenol starting materials (4, 5, and 15) were also included for comparison. All compounds were applied in 2.5 µM concentration for 72 h. The obtained cell viability data were used to construct a heat map (Figure 2) in order to select compounds that exert cancer cell line-specific cytotoxicity. […] Furthermore, some compounds discriminated only DU145 cells and could eliminate these type of prostate cancer cells.
(§2) To understand structure-function relationships, we also included the structural analogs of the selected compounds, namely 7a (C-17 acetate of 8a), 8c (C-17 OH counterpart of 7c), and 9a (steroidal pair of 19a) into subsequent analyses. […] For this, compounds were applied on MCF-7, PC-3, DU145, and HeLa and on non-cancerous MRC-5 fibroblasts in various concentrations for 72 h or were treated with cisplatin at different concentrations. On the viability data, dose–response curves were fitted (Figure S1) and IC50 values were calculated accordingly (Table 3). In agreement with the primary cytotoxicity screen (Table S1), the obtained IC50 concentrations clearly indicated which compound was selectively effective on one or more cancer cell lines. […] Typically, acetylated steroidal pyrazoles were less favorable than deacetylated counterparts due to reduced cancer cell selectivity (7c, 10a).
(§3) To evaluate the in vitro pharmacological effects of the synthesized molecules, each compound was first dissolved in cell culture grade DMSO (Sigma) to a final concentration of 10 mM. Using MTT colorimetric assay, the cytotoxicity of these compounds was evaluated on cancerous (MCF-7, HeLa, DU145, PC-3) and non-cancerous (MRC-5) cell lines. Briefly, 5000 cells/well of each cell line were seeded in 96-well plates and were left to grow overnight in a 5% CO2 atmosphere at 37 °C. On the next day, cells were treated with each derivative separately, in case of the primary screen, or only with the selected compounds upon IC50 determination. Cells were incubated with the test compounds for 72 h in a 5% CO2 atmosphere at 37 °C. End point was measured by incubating cells for 1 h with 0.5 mg/mL of MTT reagent (Serva) dissolved in serum free culture medium. The formazan crystals formed by metabolically active cells were later dissolved in DMSO. Optical density of the obtained solutions was measured at 570 nm using a Synergy HTX plate reader. […] The analysis and conclusions were made based on three independent experiments. Normalized data were analyzed and the heat map was constructed using GraphPad Prism 7 software.

PC-3 cells = assay: MTT cytotoxicity assay on PC-3 prostate cancer cells; format: cell-based; conditions: for primary growth inhibitory screen, cell viability, PC-3: 2.5 µM, 72 h, mean±SD, untreated control about 100; for IC50: mean ± SD
Protocol: as §1, §2, §3

DU145 cells = assay: MTT cytotoxicity assay on DU145 prostate cancer cells; format: cell-based; conditions: for primary growth inhibitory screen, cell viability, DU145: 2.5 µM, 72 h, mean±SD, untreated control about 100; for IC50: mean ± SD
Protocol: as §1, §2, §3

MCF-7 cells = assay: MTT cytotoxicity assay on MCF-7 cells; format: cell-based; conditions: for primary growth inhibitory screen, cell viability, MCF-7: 2.5 µM, 72 h, mean±SD, untreated control about 100; for IC50: mean ± SD
Protocol: as §1, §2, §3

HeLa cells = assay: MTT cytotoxicity assay on HeLa cells; format: cell-based; conditions: for primary growth inhibitory screen, cell viability, HeLa: 2.5 µM, mean±SD, untreated control about 100; for IC50: mean ± SD
Protocol: as §1, §2, §3

[1] = Homo sapiens, MRC5, 72 h, compounds 1-7 µM, read-out: IC50 on MRC-5
[2] = Homo sapiens, PC-3, 72 h, compounds 1-7 µM, read-out: IC50 on PC-3
[3] = Homo sapiens, DU-145, 72 h, compounds 1-7 µM, read-out: IC50 on DU145
[4] = Homo sapiens, MCF7, 72 h, compounds 1-7 µM, read-out: IC50 on MCF-7
[5] = Homo sapiens, HeLa, 72 h, compounds 1-7 µM, read-out: IC50 on HeLa

| Structure (SMILES) | primary growth inhibitory screen, cell viability, MRC-5 (MRC-5 fibroblasts; 72 h) | primary growth inhibitory screen, cell viability, PC-3 (PC-3 cells) | primary growth inhibitory screen, cell viability, DU145 (DU145 cells) | primary growth inhibitory screen, cell viability, MCF-7 (MCF-7 cells) | primary growth inhibitory screen, cell viability, HeLa (HeLa cells; 72 h) | melting point | IC50 (MRC-5 fibroblasts; [1]) [µM] | IC50 (PC-3 cells; [2]) [µM] | IC50 (DU145 cells; [3]) [µM] | IC50 (MCF-7 cells; [4]) [µM] | IC50 (HeLa cells; [5]) [µM] | effect on non-cancerous fibroblasts (MRC-5 fibroblasts; 72 h) | IC50 (MRC-5 fibroblasts; cisplatin applied for 24 h, 20-330 µM, read-out: IC50 on MRC-5 (positive control)) [µM] | IC50 (PC-3 cells; cisplatin applied for 24 h, 20-330 µM, read-out: IC50 on PC-3 (positive control)) [µM] | IC50 (DU145 cells; cisplatin applied for 24 h, 20-330 µM, read-out: IC50 on DU145 (positive control)) [µM] | IC50 (MCF-7 cells; cisplatin applied for 24 h, 20-330 µM, read-out: IC50 on MCF-7 (positive control)) [µM] | IC50 (HeLa cells; cisplatin applied for 24 h, 20-330 µM, read-out: IC50 on HeLa (positive control)) [µM] |
| --- | --- | --- | --- | --- | --- | --- | --- | --- | --- | --- | --- | --- | --- | --- | --- | --- | --- |
| CC(=O)O[C@H]1CC[C@H]2[C@@H]3CCc4cc(O)c(C(C)=O)cc4[C@H]3CC[C@]12C [Compound 4, 2-Acetyl-estra-1,3,5(10)-triene-3,17β-diol-17-acetate] | ≥ 100±6.6 | 88.5±6.5 | 94.2±8.6 | 92.7±2.2 | 90.0±4.3 | 200 to 202 °C | – | – | – | – | – | – | – | – | – | – | – |
| CC(=O)c1cc2c(cc1O)CC[C@@H]1[C@@H]2CC[C@]2(C)[C@@H](O)CC[C@@H]12 [Compound 5, 2-Acetyl-estra-1,3,5(10)-triene-3,17β-diol] | ≥ 100±7 | 79.0±3.8 | 100.6±6.5 | 87.5 | 99.6±3.5 | 189 to 191 °C | – | – | – | – | – | – | – | – | – | – | – |
| CC(=O)O[C@H]1CC[C@H]2[C@@H]3CCc4cc(O)c(-c5nn(-c6ccccc6)cc5C=O)cc4[C@H]3CC[C@]12C [Compound 7a, 2-(4′-Formyl-1′-phenyl-1′H-pyrazol-3′-yl)-estra-1,3,5(10)-triene-3,17β-diol-17-acetate] | ≥ 100±5.7 | 87.8±7.1 | 108.7±9.1 | 98.6±5.2 | 102.7±2.7 | 230 to 232 °C | 5.9 ± 1 | 3.63 ± 1 | 6.93 ± 1 | 4.49 ± 1 | 4.18 ± 1 | – | – | – | – | – | – |
| CC(=O)O[C@H]1CC[C@H]2[C@@H]3CCc4cc(O)c(-c5nn(-c6ccc(C)cc6)cc5C=O)cc4[C@H]3CC[C@]12C [Compound 7b, 2-(4′-Formyl-1′-(4″-tolyl)-1′H-pyrazol-3′-yl)-estra-1,3,5(10)-triene-3,17β-diol-17-acetate] | 100.4±5.1 | 98.2±6.5 | 98.7±15.6 | ≥ 100±4.3 | 100.1±2.1 | 229 to 231 °C | – | – | – | – | – | – | – | – | – | – | – |
| CC(=O)O[C@H]1CC[C@H]2[C@@H]3CCc4cc(O)c(-c5nn(-c6ccc(Cl)cc6)cc5C=O)cc4[C@H]3CC[C@]12C [Compound 7c, 2-(1′-(4″-Chlorophenyl)-4′-formyl-1′H-pyrazol-3′-yl)-estra-1,3,5(10)-triene-3,17β-diol-17-acetate] | 78.9±4.3 | 36.0±4.5 | 70.4±3.6 | 57.4±10.6 | 94.1±1.9 | 268 to 270 °C | 4.76 ± 1.1 | 2.14 ± 1.1 | 3.37 ± 1 | 1.99 ± 1.1 | 5.32 ± 1.1 | no or very mild effect | – | – | – | – | – |
| C[C@]12CC[C@@H]3c4cc(-c5nn(-c6ccccc6)cc5C=O)c(O)cc4CC[C@H]3[C@@H]1CC[C@@H]2O [Compound 8a, 2-(4′-Formyl-1′-phenyl-1′H-pyrazol-3′-yl)-estra-1,3,5(10)-trien-3,17β-diol] | 99.9±3.3 | 54.9±3.0 | 108.8±4.1 | 100.9±4.8 | 100.4±1.6 | 172 to 174 °C | 5.12 ± 1 | 3.05 ± 1 | 6.46 ± 1 | 5.03 ± 1 | 4.09 ± 1 | no or very mild effect | – | – | – | – | – |
| Cc1ccc(-n2cc(C=O)c(-c3cc4c(cc3O)CC[C@@H]3[C@@H]4CC[C@]4(C)[C@@H](O)CC[C@@H]34)n2)cc1 [Compound 8b, 2-(4′-Formyl-1′-(4″-tolyl)-1′H-pyrazol-3′-yl)-estra-1,3,5(10)-trien-3,17β-diol] | ≥ 100±2.4 | 67.8±3.8 | ≥ 100±10.2 | ≥ 100±8.2 | 92.2±8.5 | > 190 °C (dec.) | – | – | – | – | – | – | – | – | – | – | – |
| C[C@]12CC[C@@H]3c4cc(-c5nn(-c6ccc(Cl)cc6)cc5C=O)c(O)cc4CC[C@H]3[C@@H]1CC[C@@H]2O [Compound 8c] | ≥ 100±3.3 | 94.8±4.0 | ≥ 100±5.0 | ≥ 100±5.3 | 83.1±6.2 | > 190 °C (dec.) | 5.53 ± 1 | 5.08 ± 1 | 4.82 ± 1 | 5.34 ± 1 | 3.39 ± 1 | – | – | – | – | – | – |
| CC(=O)O[C@H]1CC[C@H]2[C@@H]3CCc4cc5oc(=O)c6cn(-c7ccccc7)nc6c5cc4[C@H]3CC[C@]12C [Compound 9a] | ≥ 100±8.1 | 82.0±2.2 | ≥ 100±5.8 | ≥ 100±2.4 | 73.8±0.6 | 198 to 200 °C | 6.41 ± 1.1 | 4.22 ± 1 | 5.66 ± 1 | 4.94 ± 1 | 1.55 ± 1 | – | – | – | – | – | – |
| CC(=O)O[C@H]1CC[C@H]2[C@@H]3CCc4cc5oc(=O)c6cn(-c7ccc(C)cc7)nc6c5cc4[C@H]3CC[C@]12C [Compound 9b] | ≥ 100±4.2 | 86.2±2.4 | ≥ 100±4.5 | ≥ 100±0.8 | 68.0±0.4 | 264 to 266 °C | – | – | – | – | – | – | – | – | – | – | – |
| CC(=O)O[C@H]1CC[C@H]2[C@@H]3CCc4cc5oc(=O)c6cn(-c7ccc(Cl)cc7)nc6c5cc4[C@H]3CC[C@]12C [Compound 9c] | 89.5±8.7 | 94.1±4.2 | ≥ 100±0.9 | 91.1±3.1 | 75.7±1.7 | 283 to 285 °C | – | – | – | – | – | – | – | – | – | – | – |
| CC(=O)O[C@H]1CC[C@H]2[C@@H]3CCc4cc(O)c(-c5nn(-c6ccccc6)cc5CO)cc4[C@H]3CC[C@]12C [Compound 10a] | 93.6±1.7 | 63.6±17.8 | ≥ 100±15.8 | 73.5±7.2 | 83.2±2.0 | 257 to 259 °C | – | – | – | – | – | – | – | – | – | – | – |
| N.N.[Cl][Pt][Cl] [cisplatin, reference compound] | – | – | – | – | – | – | – | – | – | – | – | – | 34.3 ± 1.02 | > 330 | 116.1 ± 1.06 | > 330 | 297.1 ± 1.02 |
